Source: paper PMC11635519, “A High-Throughput Method for Screening Peptide Activators of G-Protein-Coupled Receptors” (ACS Omega, 2024)
Entries after “also recorded” stand apart in the source; their conditions may differ. Where a SMILES comes first, the peptide text is derived from it.

What was measured:
[1] = biological target: glucagon-like peptide-1 receptor (human) (UniProt P43220)
GLP-1R [2] = assay: cAMP assay (TR-FRET) for validating GLP-1R activating peptides from screening; format: cell-based; settings: cells stably expressing GLP-1R and CRE, transfected with peptide-expressing construct, 24 h + 24 h; TR-FRET cAMP-Gs Dynamic kit
From the text: We next screened the GPI-AP-peptide library using FACS to discover novel GLP-1R activators. FACS is a widely used flow cytometric technique that isolates specific cell populations from mixtures of different cells. Briefly, when a potential peptide activator stimulates GLP-1R, there is an intracellular boost of cAMP levels. Subsequently, cAMP activates CREB, which binds to CRE and triggers transcription of the GFP/luciferase reporter gene. […] We chose the top three activating peptides found throughout the screening for further validation testing (PepA3, Pep1, and Pep2).
Figure 3 Discovery of novel agonists of the GLP-1R using our screening platform. (A) Fluorescence-activated cell analysis and sorting of HEK293 cells transfected with the GLP-1R. […] (B) Confocal microscopy of HEK293 cells transfected with the GLP-1R treated with different peptides. […] The increase in the cyclic AMP concentration was quantified to evaluate the peptides’ activities.
The stable cell lines were prepared by the infection of HEK293T cells with the pLJM1 vector with GLP-1R and CRE. The cells were selected with the hygromycin antibiotic. […] The culture medium was changed, and cells were grown for 24 h. The cAMP cell content was estimated using a homogeneous time-resolved fluorescence resonance energy transfer (TR-FRET) immunoassay using a cAMP-Gs Dynamic kit (PerkinElmer) following manufacturer’s protocol.

hGLP1R = biological target: T1, hGLP1R (Homo sapiens, UniProt P43220); assay: HTRF cAMP assay in GLP-1R-expressing HEK293 cells; format: cell-based; settings: at higher concentrations, HEK293 stably expressing GLP-1R, 4 h at 37 °C
T1 construct: expressed in transfected cells
Protocol: cAMP accumulation was measured using a HTRF cAMP-Gs Dynamic kit (Cisbio Bioassays, 62AM4PEB) according to the manufacturer’s instructions. Briefly, HEK293 cells expressing hGLP1R were trypsinized from subconfluent culture and seeded in a 96-well low-volume plate at a density of 2000 cells per well. […] After 4 h of incubation at 37 °C, cAMP d2 reagent and cAMP Eu-Cryptate antibodies were added to each well. After incubation at room temperature for 30 min in the dark, the plate was read using a Synergy 2 plate reader (BioTek) with excitation at 330 nm and emission at 620 and 665 nm. Data were used to calculate the EC50 value by fitting it to a nonlinear sigmoidal curve using GraphPad Prism 8.

[3] = Circular dichroism secondary structure determination; settings: acetonitrile:PBS (1:2), 20 μM peptide, 0.1 cm cuvette, 10 accumulations; for Others (secondary structure content) / α-helix content / β-sheet content: Table S2, estimated by BeStSel from CD; for α-helical structure content: circular dichroism
Protocol: We next performed circular dichroism (CD) analysis of the peptides in solution to determine the peptides’ secondary structure.
Peptide secondary structure determination was carried out using a Jasco J-720 spectropolarimeter (Table S2). Lyophilized peptide powders were dissolved in acetonitrile:PBS (1:2), and CD spectra were read immediately. […] Samples were read using a 0.1 cm cuvette path length with 10 accumulations per run and 50 nm/min scanning speed. All spectra were background subtracted.

GLP-1R [4] = assay: FACS analysis of GFP-positive cells (CRE-GFP reporter), GLP-1R-expressing HEK293; format: cell-based; settings: HEK293 cells transfected with GLP-1R
Protocol: Cells were harvested by trypsin treatment and centrifuged at 500g for 5 min. The pellet was resuspended in ice-cold PBS and centrifuged again. The pellet was then resuspended at a concentration of 4 × 10^6 cells/mL in the PBS sorting buffer containing 100 Kunitz DNase I/mL, 10 μg/mL propidium iodide (Sigma), and 2% FBS. The sorting solution was also supplemented with either 10 μM forskolin, 100 μM 5,6-dichlorobenzimidazole riboside (DRB, Sigma), 10 μM forskolin (Sigma), and 100 μM DRB or DMSO, as a control. The cells were then sent through a 40 μm filter to remove large clumps and loaded into either a FACScan Flow Cytometer (BD Bioscience) for cell analysis or a FACSVantage SE cell sorter (BD Bioscience) for cell sorting. The cells with positive propidium iodide staining, i.e., the dead cells, were first eliminated from the analysis or sorting pool. For cell sorting, the desired population, either the EGFP brightest or least bright ones according to the purpose of experiments (see Results), was sorted into either 15 mL conical tubes or 96-well plates, which contained complete DMEM culture media.

CCR2-mCherry = assay: FRET colocalization of MCP1-GFP with CCR2-mCherry at the cell surface; format: cell-based; settings: MCP1-GFP and CCR2-mCherry; transient coexpression in HEK293 cells; FRET assays
Protocol: To validate our screening platform, we chose the interaction between the chemokine MCP1 peptide and C–C chemokine receptor 2 (CCR2).[10],[11] We designed a structure that encodes a fusion protein to display the MCP1 peptide on the cell surface. The Ly6/neurotoxin (LYNX1) signal and GPI-AP sequences were present in this fusion protein’s N- and C-terminal regions, respectively. A Flag tag or GFP sequence was added upstream of the GPI-AP sequence. We also investigated the effect of various linkers between MCP1 and FLAG, as well as the FLAG and GPI-AP sequences (Figure 2A). All of the different MCP1-GFP constructions and CCR2 receptor fused with the mCherry fluorescent protein (CCR2-mCherry) were cloned into the pLJM1 nGFP lentiviral vector to evaluate their expression in human embryonic kidney 293 (HEK293) cells.
Figure 2 Validation of the screening platform using the MCP1 peptide. (A) Genetic construction that encodes the fusion protein used to display library peptides on the cell surface. (B) Cell surface localization of the MCP1-GFP peptide and CCR2-mCherry receptor. MCP1-GFP peptide and CCR2-mCherry were localized at the cell surface when expressed separately. […]
MCP1-GFP and CCR2-mCherry were localized at the cell surface when expressed separately (Figure 2B). […] We then evaluated the activity of the different MCP1-GFP constructions using a CRE-luciferase reporter assay. […]

CCR2 = assay: CRE-luciferase reporter assay of MCP1 fusion constructs (platform validation); format: cell-based; settings: HEK293T stably expressing CCR2 and Gaussia luciferase reporter, luciferase induced by 10 μM forskolin
From the text: Figure 2 Validation of the screening platform using the MCP1 peptide. (A) Genetic construction that encodes the fusion protein used to display library peptides on the cell surface. (B) Cell surface localization of the MCP1-GFP peptide and CCR2-mCherry receptor. MCP1-GFP peptide and CCR2-mCherry were localized at the cell surface when expressed separately. (C) MCP1-GFP peptide colocalized with CCR2-mCherry at the cell surface and distinct subcellular sites upon transient coexpression in HEK293T cells. (D) Evaluating the activity of different fusion proteins of the MCP1 peptide using a CRE-luciferase reporter assay. […] The activation of the different peptide variants was recorded through the inhibition of the luciferase expression induced by 10 μM forskolin.
MCP1-GFP and CCR2-mCherry were localized at the cell surface when expressed separately (Figure 2B). […] We then evaluated the activity of the different MCP1-GFP constructions using a CRE-luciferase reporter assay. As a negative control, we used a construction where the MCP1 peptide is not fused to the signal or GPI-AP sequences.
HEK293T cells stably expressing CCR2 and the reporter Gaussia Luciferase construct were trypsinized from subconfluent culture and seeded in a 96-well plate at a density of 5000 cells per well. […] Immediately after adding the reagent, samples were read using a luminometer with a 480 nm filter.

T1 sequence (P43220 24-463): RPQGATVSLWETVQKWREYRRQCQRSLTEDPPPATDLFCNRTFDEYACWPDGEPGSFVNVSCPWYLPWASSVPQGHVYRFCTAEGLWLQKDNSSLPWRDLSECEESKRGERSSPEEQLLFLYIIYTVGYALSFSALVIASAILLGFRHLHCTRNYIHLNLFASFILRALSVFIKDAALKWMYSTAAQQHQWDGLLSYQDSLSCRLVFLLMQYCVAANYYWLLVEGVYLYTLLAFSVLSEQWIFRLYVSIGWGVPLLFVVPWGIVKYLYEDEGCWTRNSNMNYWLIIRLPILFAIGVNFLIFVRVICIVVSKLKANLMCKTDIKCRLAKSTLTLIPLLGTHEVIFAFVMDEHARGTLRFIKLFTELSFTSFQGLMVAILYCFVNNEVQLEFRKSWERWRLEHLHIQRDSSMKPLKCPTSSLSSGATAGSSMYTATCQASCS
glucagon-like peptide-1 receptor (human), sequence (P43220 24-463): as above

glucagon-like peptide-1 (ligand)
EC50 of the decrease of the FRET signal in the HTRF cAMP assay, GLP-1R expressing HEK293 cells [1]: 0.54 nM

SGLAGHSVFLVPGLAAHPGSHSDQPPGVPSRR [Pep2]
stimulation of GLP-1R-expressing cells and intracellular cAMP increase (GLP-1R [2]): Only PepA3 stimulated the GLP-1R-expressing HEK293 cells

CC[C@H](C)[C@H](N)C(=O)N[C@@H](CS)C(=O)N[C@@H](CCC(=O)O)C(=O)NCC(=O)N[C@@H](CC(C)C)C(=O)N[C@@H](CCCNC(=N)N)C(=O)N[C@@H](CCC(=O)O)C(=O)N[C@H](C(=O)N[C@@H](CS)C(=O)N[C@@H](CCC(N)=O)C(=O)N1CCC[C@H]1C(=O)N[C@@H](C)C(=O)N[C@@H](Cc1ccccc1)C(=O)N[C@@H](CC(=O)O)C(=O)N[C@@H](C)C(=O)N[C@H](C(=O)N[C@@H](CC(=O)O)C(=O)N[C@@H](CCSC)C(=O)N[C@@H](C)C(=O)N[C@@H](Cc1c[nH]c2ccccc12)C(=O)N1CCC[C@H]1C(=O)N[C@@H](Cc1ccc(O)cc1)C(=O)N[C@@H](Cc1ccccc1)C(=O)N[C@@H](CC(C)C)C(=O)N[C@@H](CC(=O)O)C(=O)N[C@@H](CS)C(=O)N[C@@H](Cc1c[nH]cn1)C(=O)N[C@@H](CCCNC(=N)N)C(=O)N[C@@H](Cc1ccc(O)cc1)C(=O)N[C@@H](Cc1ccccc1)C(=O)N[C@H](C(=O)N[C@@H](CCCNC(=N)N)C(=O)N[C@@H](CCC(=O)O)C(=O)O)[C@@H](C)O)[C@@H](C)CC)C(C)C [PepA2] (H-ICEGLREVCQPAFDAIDMAWPYFLDCHRYFTRE-OH; N-terminus and C-terminus assumed)
efficacy for GLP-1R activation relative to GLP-1 (hGLP1R): able to stimulate GLP-1R activation to a level comparable to that of GLP-1
Others (secondary structure content) [3]: 56.5%
α-helix content [3]: 30.1%
β-sheet content [3]: 13.3%
α-helical structure content [3]: 30.1–46.1%

CC[C@H](C)[C@H](NC(=O)[C@H](C)NC(=O)[C@H](CC(=O)O)NC(=O)[C@H](Cc1ccccc1)NC(=O)[C@H](C)NC(=O)[C@@H]1CCCN1C(=O)[C@H](CCC(N)=O)NC(=O)[C@H](CS)NC(=O)[C@@H](NC(=O)[C@H](CCC(=O)O)NC(=O)[C@H](CCCNC(=N)N)NC(=O)[C@H](CC(C)C)NC(=O)CNC(=O)[C@H](CCC(=O)O)NC(=O)[C@@H](N)CS)C(C)C)C(=O)N[C@@H](CC(=O)O)C(=O)N[C@@H](CCSC)C(=O)N[C@@H](C)C(=O)N[C@@H](Cc1c[nH]c2ccccc12)C(=O)N1CCC[C@H]1C(=O)N[C@@H](Cc1ccc(O)cc1)C(=O)N[C@@H](Cc1ccccc1)C(=O)N[C@@H](CC(C)C)C(=O)N[C@@H](CC(=O)O)C(=O)N[C@@H](CS)C(=O)N[C@@H](Cc1c[nH]cn1)C(=O)N[C@@H](CCCNC(=N)N)C(=O)N[C@@H](Cc1ccc(O)cc1)C(=O)N[C@@H](Cc1ccccc1)C(=O)N[C@H](C(=O)N[C@@H](CCCNC(=N)N)C(=O)N[C@@H](CCC(=O)O)C(=O)O)[C@@H](C)O [PepA3] (H-CEGLREVCQPAFDAIDMAWPYFLDCHRYFTRE-OH; N-terminus and C-terminus assumed)
efficacy for GLP-1R activation relative to GLP-1 (hGLP1R): able to stimulate GLP-1R activation to a level comparable to that of GLP-1
Others (secondary structure content) [3]: 46.7%
α-helix content [3]: 42.9%
β-sheet content [3]: 10.4%
α-helical structure content [3]: 30.1–46.1%
stimulation of GLP-1R-expressing cells and intracellular cAMP increase (GLP-1R [2]): stimulated the GLP-1R-expressing HEK293 cells and increased the cAMP intracellular levels

CC[C@H](C)[C@H](NC(=O)[C@H](C)NC(=O)[C@H](CC(=O)O)NC(=O)[C@H](Cc1ccccc1)NC(=O)[C@H](C)NC(=O)[C@@H]1CCCN1C(=O)[C@H](CCC(N)=O)NC(=O)[C@H](CS)NC(=O)[C@@H](NC(=O)[C@H](CCC(=O)O)NC(=O)[C@H](CCCNC(=N)N)NC(=O)[C@H](CC(C)C)NC(=O)CNC(=O)[C@H](CCC(=O)O)NC(=O)[C@H](CS)NC(=O)[C@@H](NC(=O)[C@@H](N)Cc1c[nH]cn1)[C@@H](C)CC)C(C)C)C(=O)N[C@@H](CC(=O)O)C(=O)N[C@@H](CCSC)C(=O)N[C@@H](C)C(=O)N[C@@H](Cc1c[nH]c2ccccc12)C(=O)N1CCC[C@H]1C(=O)N[C@@H](Cc1ccc(O)cc1)C(=O)N[C@@H](Cc1ccccc1)C(=O)N[C@@H](CC(C)C)C(=O)N[C@@H](CC(=O)O)C(=O)N[C@@H](CS)C(=O)N[C@@H](Cc1c[nH]cn1)C(=O)N[C@@H](CCCNC(=N)N)C(=O)N[C@@H](Cc1ccc(O)cc1)C(=O)N[C@@H](Cc1ccccc1)C(=O)N[C@H](C(=O)N[C@@H](CCCNC(=N)N)C(=O)N[C@@H](CCC(=O)O)C(=O)O)[C@@H](C)O [PepA] (H-HICEGLREVCQPAFDAIDMAWPYFLDCHRYFTRE-OH; N-terminus and C-terminus assumed)
efficacy for GLP-1R activation relative to GLP-1 (hGLP1R): able to stimulate GLP-1R activation to a level comparable to that of GLP-1
Others (secondary structure content) [3]: 45.4%
α-helix content [3]: 46.1%
β-sheet content [3]: 8.5%
α-helical structure content [3]: 30.1–46.1%

C=C[C@@]1(C)CC(=O)[C@]2(O)[C@@]3(C)[C@@H](O)CCC(C)(C)[C@@H]3[C@H](O)[C@H](OC(C)=O)[C@@]2(C)O1 [forskolin]
GFP-positive cells versus no treatment (GLP-1R [4]): more GFP-positive cells

ELAELVPRLFRVASKTHRDLLEVNLQNGILFV [Pep1]
stimulation of GLP-1R-expressing cells and intracellular cAMP increase (GLP-1R [2]): Only PepA3 stimulated the GLP-1R-expressing HEK293 cells

MCP1: chemokine MCP1 peptide displayed on the cell surface as fusion with LYNX1 signal and GPI-AP sequences
colocalization with CCR2 at the cell surface (CCR2-mCherry): colocalization of MCP1 and CCR2 at the cell surface
activation of CCR2 receptor (inhibition of forskolin-induced luciferase expression) (CCR2; MCP1 fused to the signal sequence and GPI-AP (all constructions), 6 h after transfection): activated the receptor in all the constructions where the peptide was fused to the signal sequence and GPI-AP; also recorded: activated the CCR2 receptor in all the constructions where the peptide was fused to the signal and GPI-AP sequences
activation of CCR2 receptor (inhibition of forskolin-induced luciferase expression) (CCR2; negative control: MCP1 not fused to the signal or GPI-AP sequences): did not activate the CCR2 receptor when the peptide was not fused to the signal sequence and GPI-AP
